Key:
[1] = target: recombinant human KRAS wild type (SOS1-mediated nucleotide exchange) (Homo sapiens (Human), UniProt P01116); test: KRAS biochemical assay, BODIPY-GDP exchange TR-FRET (WT-GDP HTRF)
Method: [Worded in the source for another variant; this variant is reported under the same test.] KRAS Biochemical Assay—BODIPY-GDP Exchange TR-FRET.
Biochemical compound potencies were assessed by evaluating inhibition of SOS1-mediated nucleotide exchange in KRAS G12D. The SOS1-promoted exchange of fluorescently-labeled GDP (BOPIDY-GDP) was monitored by time-resolved fluorescence resonance energy transfer (TR-FRET). Compounds solubilized in DMSO were dispensed as concentration series into 384-well white assay plates. […] The reaction was initiated with the addition of 5 μL of 3 nM recombinant human SOS1 and 300 nM BODIPY-GDP in assay buffer. After a 60-minute incubation, the fluorescence was measured with excitation at 337 nm and emission at 490 and 520 nm. The TR-FRET ratio was determined as the fluorescence at 520 nm divided by the fluorescence at 490 nm multiplied by 10,000. […] The normalized TR-FRET results were plotted against compound concentration, and the data fit to a 4-parameter Hill equation to determine the IC50 values.

[2] = target: recombinant human mutant KRas G12V (SOS1-mediated nucleotide exchange) (Homo sapiens (Human), UniProt P01116, G12V); test: KRAS biochemical assay, BODIPY-GDP exchange TR-FRET (G12V-GDP HTRF)
Sequence of recombinant human mutant KRas G12V (SOS1-mediated nucleotide exchange) (P01116-2 other isoform, or with tags, fused parts or gaps G12V): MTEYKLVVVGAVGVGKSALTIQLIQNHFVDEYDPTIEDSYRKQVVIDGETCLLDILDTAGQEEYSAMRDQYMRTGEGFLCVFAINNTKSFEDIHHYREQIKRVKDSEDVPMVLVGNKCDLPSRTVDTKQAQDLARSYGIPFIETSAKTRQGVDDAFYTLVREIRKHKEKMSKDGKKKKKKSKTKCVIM

[3] = tested on: SW620 cells; test: SW620 3D proliferation assay (CellTiter-Glo); type: cell-based; details: Homo sapiens, SW-620, 168 h, SW620, 3D culture, 7 days, read-out: SW620 CTG IC50
Method: (§1) SW620 and HPAC 3D proliferation assays.
(§2) Compound potencies were assessed in proliferation assays conducted with SW620 and HPAC cell lines grown in 3D cultures. Cells were seeded into 96- or 384-well ultra-low attachment plates at 3000 or 1000 cells/well, respectively, in culture medium (RPMI-1640, 10% FBS, 2 mM L-glutamine). The plated cells were centrifuged briefly, allowed to rest for 30 minutes under ambient conditions, and cultured overnight at 37° C./5% CO2 to initiate the formation of spheroids. Compound dilutions were prepared across a range of concentrations in DMSO and added to the appropriate wells of the assay plates with a 333-fold dilution into the culture medium. The plates were further incubated for 7 days. The quantity of viable cells was assessed using CellTiter-Glo 3D Cell Viability Assay (Promega). The detection reagent penetrates the spheroids and lyses the cells. The released ATP that was detected with luciferase and a luciferase substrate to generate a luminescent readout. […] The data points were fit to a 4-parameter logistic equation to determine IC50 values.

[4] = tested on: H1975 cells; test: H1975 CTG proliferation assay; type: cell-based; details: Homo sapiens, NCI-H1975, H1975, CTG
[5] = tested on: HPAC cells; test: HPAC 3D proliferation assay (CellTiter-Glo); type: cell-based; details: Homo sapiens, 168 h, 3D culture, 7 days, read-out: HPAC CTG IC50
Method: as §1, §2

[6] = tested on: SW620 PERK; test: SW620 PERK assay; type: cell-based; details: Homo sapiens, SW-620, SW620, PERK

Sequence of recombinant human KRAS wild type (SOS1-mediated nucleotide exchange) (P01116-2 other isoform, or with tags, fused parts or gaps): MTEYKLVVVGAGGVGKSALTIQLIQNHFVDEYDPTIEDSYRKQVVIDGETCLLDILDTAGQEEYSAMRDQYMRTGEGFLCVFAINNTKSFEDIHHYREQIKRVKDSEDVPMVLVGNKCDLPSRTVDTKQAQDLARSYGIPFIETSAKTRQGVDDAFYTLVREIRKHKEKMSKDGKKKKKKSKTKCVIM

Compound	IC50 [1]	IC50 [2]	IC50 [3]	IC50 [4]	IC50 [5]	IC50 [6]
Cc1cc(N)cc(-c2nc3c4c(nc(OC[C@@]56CCCN5C[C@H](F)C6)nc4c2F)N([C@H](C)c2cccnc2N)CCO3)c1C(F)(F)F [Example 3, 3-((R)-1-(5-(5-amino-3-methyl-2-(trifluoromethyl)phenyl)-4-fluoro-2-(((2R,7aS)-2-fluorotetrahydro-1H-pyrrolizin-7a(5H)-yl)methoxy)-8,9-dihydro-10H-7-oxa-1,3,6,10-tetraazacyclohepta[de]naphthalen-10-yl)ethyl)pyridin-2-amine]	0.104 nM	0.08 nM	1.15 nM	9.54 nM	8.79 nM	0.59 nM
Cc1cc(N)nc(-c2nc3c4c(nc(OC[C@@]56CCCN5C[C@H](F)C6)nc4c2F)N(C(C)c2scnc2N)CCO3)c1C(F)(F)F (stereo partly drawn) [Example 607, 5-(1-(5-(6-amino-4-methyl-3-(trifluoromethyl)pyridin-2-yl)-4-fluoro-2-(((2R,7aS)-2-fluorotetrahydro-1H-pyrrolizin-7a(5H)-yl)methoxy)-8,9-dihydro-10H-7-oxa-1,3,6,10-tetraazacyclohepta[de]naphthalen-10-yl)ethyl)thiazol-4-amine]	0.69 nM	0.27 nM	90.7 nM	35.5 nM	302 nM	17.8 nM
Cc1c(F)c(N)cc(-c2nc3c4c(nc(OC[C@@]56CCCN5C[C@]5(CC5(F)F)C6)nc4c2F)N([C@H](C)c2cccnc2N)CCO3)c1C(F)(F)F [Example 31, 3-((R)-1-(5-(5-amino-4-fluoro-3-methyl-2-(trifluoromethyl)phenyl)-2-(((1R,7a'S)-2,2-difluorodihydro-1′H,3′H-spiro[cyclopropane-1,2′-pyrrolizin]-7a′(5′H)-yl)methoxy)-4-fluoro-8,9-dihydro-10H-7-oxa-1,3,6,10-tetraazacyclohepta[de]naphthalen-10-yl)ethyl)pyridin-2-amine]	0.419 nM	0.27 nM	16.2 nM	17.9 nM	156 nM	26.8 nM
Cc1c(F)c(N)c(F)c(-c2nc3c4c(nc(OC[C@@]56CCCN5C[C@H](F)C6)nc4c2Cl)N([C@H](C)c2cccnc2N)CCO3)c1C(F)(F)F (single isomer, unassigned) [Example 629b]	12.3 nM	4.8 nM	74.2 nM	426 nM	682 nM	105 nM
C[C@H](c1cccnc1N)N1CCOc2nc(-c3cc(N)nc4ccccc34)c(F)c3nc(OC[C@@]45CCCN4C[C@H](F)C5)nc1c23 [Example 602, 4-(10-((R)-1-(2-aminopyridin-3-yl)ethyl)-4-fluoro-2-(((2R,7aS)-2-fluorotetrahydro-1H-pyrrolizin-7a(5H)-yl)methoxy)-9,10-dihydro-8H-7-oxa-1,3,6,10-tetraazacyclohepta[de]naphthalen-5-yl)quinolin-2-amine]	22.6 nM	2.2 nM	1950 nM	296 nM	> 2000 nM	629 nM
Cc1nc(N)cc(-c2nc3c4c(nc(OC[C@@]56CCN5C[C@]5(CC5(F)F)C6)nc4c2F)N([C@H](C)c2cncnc2N)CCO3)c1C(F)(F)F [Example 606]	0.808 nM	0.2 nM	1520 nM	374 nM	> 2000 nM	855 nM
Cc1nc(N)cc(-c2nc3c4c(nc(OC[C@@]56CCCN5C[C@H](F)C6)nc4c2Cl)N([C@H](C)c2cccnc2N)CCO3)c1C(F)(F)F [Example 626, 4-(10-((R)-1-(2-aminopyridin-3-yl)ethyl)-4-chloro-2-(((2R,7aS)-2-fluorotetrahydro-1H-pyrrolizin-7a(5H)-yl)methoxy)-9,10-dihydro-8H-7-oxa-1,3,6,10-tetraazacyclohepta[de]naphthalen-5-yl)-6-methyl-5-(trifluoromethyl)pyridin-2-amine]	0.67 nM	0.16 nM	27.1 nM	262 nM	160 nM	10.5 nM
